Here are results for two compounds from ChEMBL document CHEMBL5154887, “Novel CRBN-Recruiting Proteolysis-Targeting Chimeras as Degraders of Stimulator of Interferon Genes with In Vivo Anti-Inflammatory Efficacy” (J Med Chem, 2022).

A short description of data set [1]: Cytotoxicity against HEK293-A cells assessed as reduction in cell viability at <10 uM by MTT assay. The format is toxicity, cell-based. Conditions: human.
In data set [2] the target is T1, Protein cereblon/Stimulator of interferon genes protein (Homo sapiens, UniProt Q96SW2+Q86WV6). Nature of the data set: Protac activity at CRBN/STING in human THP-1 cells assessed as increase in STING degradation at 10 uM incubated for 48 hrs by Western blot analysis relative to control. It is filed as cell-based.
Target sequence in this assay (Q86WV6 whole entry, looked up): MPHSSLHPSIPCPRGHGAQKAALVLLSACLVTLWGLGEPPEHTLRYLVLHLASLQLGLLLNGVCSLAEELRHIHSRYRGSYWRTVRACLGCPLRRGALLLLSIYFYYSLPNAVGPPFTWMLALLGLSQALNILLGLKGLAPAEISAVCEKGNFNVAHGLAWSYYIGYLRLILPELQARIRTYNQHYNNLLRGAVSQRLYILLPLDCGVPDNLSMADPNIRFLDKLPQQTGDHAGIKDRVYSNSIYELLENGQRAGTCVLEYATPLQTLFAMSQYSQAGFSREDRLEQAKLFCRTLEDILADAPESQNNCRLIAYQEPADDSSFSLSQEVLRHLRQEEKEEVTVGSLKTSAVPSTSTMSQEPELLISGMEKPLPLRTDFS
Target sequence in this assay (Q96SW2 whole entry, looked up): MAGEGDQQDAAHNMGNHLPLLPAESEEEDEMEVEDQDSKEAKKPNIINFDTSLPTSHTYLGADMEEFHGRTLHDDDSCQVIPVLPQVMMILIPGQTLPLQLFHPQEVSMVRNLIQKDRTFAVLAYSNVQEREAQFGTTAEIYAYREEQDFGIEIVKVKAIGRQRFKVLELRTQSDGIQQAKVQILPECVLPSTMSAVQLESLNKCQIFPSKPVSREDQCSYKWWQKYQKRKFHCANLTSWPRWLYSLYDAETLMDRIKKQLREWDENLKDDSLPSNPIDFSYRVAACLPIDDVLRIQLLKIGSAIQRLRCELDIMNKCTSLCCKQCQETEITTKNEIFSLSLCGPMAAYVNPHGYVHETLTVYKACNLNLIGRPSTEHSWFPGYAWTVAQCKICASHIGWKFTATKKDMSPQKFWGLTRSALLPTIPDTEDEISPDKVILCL
Data set [3] has as its system L02. Nature of the data set: Cytotoxicity against human L02 cells assessed as reduction in cell viability at <10 uM by MTT assay. The format is toxicity, cell-based. Particulars: l02, 10 µM.
Data set [4] is described as follows: Cytotoxicity against mouse C17.2 cells assessed as reduction in cell viability at <10 uM by MTT assay. It is filed as toxicity, cell-based. Conditions: c17.2, 10 µM. (Tetrazolium assays rely on reduction of a dye to a coloured formazan, in cell work by metabolically active cells.)
The target in data set [5] is T1, Protein cereblon/Stimulator of interferon genes protein. Put plainly: Protac activity at CRBN/STING in human THP-1 cells assessed as increase in STING degradation incubated for 48 hrs by Western blot analysis. It is filed as cell-based. In general terms: Immunoblotting shows a protein as a band on a membrane.
Target sequence in this assay (Q96SW2 whole entry): as the sequence (Q96SW2 whole entry, looked up) above
Target sequence in this assay (Q86WV6 whole entry): as the sequence (Q86WV6 whole entry, looked up) above

Regarding `O=C(/C=C/C(=O)Nc1ccc(NC(=O)c2ccc([N+](=O)[O-])o2)cc1)NCCCCCNc1cccc2c1C(=O)N(C1CCC(=O)NC1=O)C2=O` (stereo not given), the Activity result was “Non-Toxic” in data set [1], 62% in data set [2], “Non-Toxic” in data set [3] and “Non-Toxic” in data set [4]. Moreover, the DC50 – broadly, the concentration giving 50% degradation – in data set [5] turned out to be 9.2 µM.

On to `O=C(/C=C/C(=O)Nc1ccc(NC(=O)c2ccc([N+](=O)[O-])o2)cc1)NCCCCNc1cccc2c1C(=O)N(C1CCC(=O)NC1=O)C2=O` (stereo not given), for which the Activity entry in data set [1] is “Non-Toxic”; in data set [2], 22%; in data set [3], “Non-Toxic”; in data set [4], “Non-Toxic”. Further, the DC50 in data set [5] was above 10 µM.
